# Tests used:
# [1] = molecular target: monoclonal antibody CA1; assay: competitive ELISA, inhibition of binding of antibody CA1 to structure 1a,b-KLH conjugate; design: species or system mouse; settings: for pmol of compound needed for 50% inhibition of binding in the competitive ELISA, CA1: plate coated with structure 1a,b-KLH conjugate
# Description: (§1) Screening for Antibody Production. In order to screen the fused cells for the production of antibody specific for the cyclic deoxyguanosine adducts, an enzyme-linked immunosorbent assay ("ELISA") may be used. ELISA links soluble antigens to insoluble antibodies or soluble antibodies to solid phase antigens in a manner that allows both immunolgical and enzymatic activity to be retained.
# (§2) ELISA techniques for antigen or antibody quantification are well-known to the art. By way of example, wells of a 96-well polystyrene ELISA plate may be coated with 10 ng of structure a, b-KLH conjugate, diluted in Phosphate buffered saline (PBS), for 1 h at room temperature. The wells may be washed twice with PBS containing 0.1% Tween 20 and twice with distilled H2 O. From this point all reagents may be diluted in PBS containing 0.1% bovine serum albumin ("BSA"). Wells are filled with 50 μl of PBS-BSA followed by 50 μl of culture supernatant and incubated at room temperature for 1 h. For competitive ELISA, adduct standards or test samples are mixed with the monoclonal antibody and added to the well. The wells are washed and 100 μl of alkaline phosphatase-labeled goat anti-mouse 1 gG antibody (Kirkegaard & Perry Laboratories, Inc., Gaithersburg, Md.) are added to each well and incubated at room temperature for 1 h. After washing, 100 μl of substrate solution (1 mg/ml of p-nitrophenylphosphate in 1M diethanolamine buffer, pH 9.8) are added to each well and incubated at room temperature for 30 min. […] In quantitative experiments the concentration of unknown samples may be determined by comparison to a standard curve relating the log of the inhibitor concentration to the logit of the percentage of inhibition [formula]
# (§3) Using the above-identified procedures, a single mouse was boosted with the structure 1a,b-KLH conjugate for 4 consecutive days and the fusion was performed on the fifth day.
# [2] = molecular target: monoclonal antibody CA2; assay: competitive ELISA, inhibition of binding of antibody CA2 to structure 1a,b-KLH conjugate; design: species or system mouse; settings: for pmol of compound needed for 50% inhibition of binding in the competitive ELISA, CA2: plate coated with structure 1a,b-KLH conjugate
# Description: as §1, §2, §3
# [3] = molecular target: monoclonal antibody CA3; assay: competitive ELISA, inhibition of binding of antibody CA3 to structure 1a,b-KLH conjugate; design: species or system mouse; settings: for pmol of compound needed for 50% inhibition of binding in the competitive ELISA, CA3: plate coated with structure 1a,b-KLH conjugate
# Description: as §1, §2, §3
# [4] = molecular target: monoclonal antibody CA4; assay: competitive ELISA, inhibition of binding of antibody CA4 to structure 1a,b-KLH conjugate; design: species or system mouse; settings: plate coated with structure 1a,b-KLH conjugate
# Description: as §1, §2, §3
# [5] = test system: the four antibodies (CA1, CA2, CA3, CA4); assay: competitive ELISA, reactivity of the four antibodies; type: binding, mouse; settings: all four antibodies; O6-methyldeoxyguanosine: with the exception of CA3
# Description: as §1, §2, §3
Structure (SMILES),"pmol of compound needed for 50% inhibition of binding in the competitive ELISA, CA1 [1]","pmol of compound needed for 50% inhibition of binding in the competitive ELISA, CA2 [2]","pmol of compound needed for 50% inhibition of binding in the competitive ELISA, CA3 [3]","pmol of compound needed for 50% inhibition of binding in the competitive ELISA, CA4 [4]",reactivity / cross-reactivity with the four antibodies [5],affinity of antibody CA1 [1],affinity / reactivity of antibody CA3 [3],specificity of antibody CA2 [2]
O=c1c2ncn([C@H]3C[C@H](O)[C@@H](CO)O3)c2nc2n1C(O)C(O)N2 (stereo partly drawn) [1e],113 pmol,156 pmol,22 pmol,"41,470 pmol",Cross-reactivity,,,
"Nc1ccn([C@H]2C[C@H](O)[C@@H](CO)O2)c(=O)n1 [Deoxycytosine, reference compound]","> 110,000 pmol","> 110,000 pmol","> 110,000 pmol","> 110,000 pmol",,,,
"CC1CC(O)n2c(nc3[nH]cnc3c2=O)N1 (stereo not drawn) [1,base]",8.6 pmol,69 pmol,143 pmol,30 pmol,Cross-reactivity,,,
"CC1CC(O)n2c(nc3c(ncn3[C@H]3C[C@H](O)[C@@H](CO)O3)c2=O)N1 (mixture of isomers) [1b, 8R, 6R- and 8S, 6S-3-(2-deoxy-3-β-erythro-pentofuranosyl) 5,6,7,8-tetrahydro-8-hydroxy-6-methylpyrimido(1,2-a)purine-10(3H)one]",0.2 pmol,0.4 pmol,10 pmol,0.9 pmol,strongest,high apparent affinity,,
COc1nc(N)nc2c1ncn2[C@H]1C[C@H](O)[C@@H](CO)O1 [reference compound],"56,790 pmol","51,270 pmol",235 pmol,"> 100,000 pmol",unreactive,,,
"Cc1cn([C@H]2C[C@H](O)[C@@H](CO)O2)c(=O)[nH]c1=O [Thymidine, reference compound]","> 100,000 pmol","> 100,000 pmol","> 100,000 pmol","> 100,000 pmol",,,,
"Nc1ncnc2c1ncn2[C@H]1C[C@H](O)[C@@H](CO)O1 [Deoxyadenosine, reference compound]","> 80,000 pmol","> 80,000 pmol","> 80,000 pmol","> 80,000 pmol",,,,
"CC1CC(O)n2c(nc3c(ncn3[C@H]3C[C@H](O)[C@@H](CO)O3)c2=O)N1 (mixture of isomers) [1a, 8R, 6R- and 8S, 6S-3-(2-deoxy-3-β-erythro-pentofuranosyl) 5,6,7,8-tetrahydro-8-hydroxy-6-methylpyrimido(1,2-a)purine-10(3H)one]",12.8 pmol,17 pmol,0.2 pmol,10 pmol,strongest,lower affinity,highest affinity of the four antibodies,
"Nc1nc2c(ncn2[C@H]2C[C@H](O)[C@@H](CO)O2)c(=O)[nH]1 [Deoxyguanosine, reference compound]","2,564 pmol",698 pmol,14 pmol,"5,370 pmol",significant cross-reactivity,,,
O=c1c2ncn([C@H]3C[C@H](O)[C@@H](CO)O3)c2nc2n1CCC(O)N2 (stereo partly drawn) [1c],90 pmol,9 pmol,5 pmol,112 pmol,Cross-reactivity,,less reactive than the above three molecules,
O=c1c2ncn([C@H]3C[C@H](O)[C@@H](CO)O3)c2nc2n1C(O)CCN2 (stereo partly drawn) [1d],0.8 pmol,0.2 pmol,0.9 pmol,7.9 pmol,Cross-reactivity,,,most specific

# From patent publication US4923813A, “Monoclonal antibody-based immunoassay for cyclic DNA adducts resulting from exposure to crotonaldehyde or acrolein” (American Health Foundation, priority 1988, dated 1990)
